Measured values taken from patent US20110195900A1, “PEPTIDIC PTH RECEPTOR AGONISTS” (FERRING B.V., priority 2008, published 2011).
pEC50: −log10 of the molar value. Non-standard residues stand in square brackets, D forms with d. Residues, ends and D or L forms follow the SMILES beside them. 1Nal = N[C@@H](Cc1cccc2ccccc12)C(=O)O; β3hI = CC[C@H](C)[C@H](N)CC(=O)O; Nle = CCCC[C@H](N)C(=O)O; Aib = CC(C)(N)C(=O)O

Key:
human PTH-2 receptor = biological target: T1, human PTH-2 receptor (Homo sapiens, UniProt P49190); experiment: Luciferase-based transcriptional reporter gene assay for selectivity; assay type: cell-based
T1 construct: expressed in transfected cells
T1 sequence (P49190 25-550): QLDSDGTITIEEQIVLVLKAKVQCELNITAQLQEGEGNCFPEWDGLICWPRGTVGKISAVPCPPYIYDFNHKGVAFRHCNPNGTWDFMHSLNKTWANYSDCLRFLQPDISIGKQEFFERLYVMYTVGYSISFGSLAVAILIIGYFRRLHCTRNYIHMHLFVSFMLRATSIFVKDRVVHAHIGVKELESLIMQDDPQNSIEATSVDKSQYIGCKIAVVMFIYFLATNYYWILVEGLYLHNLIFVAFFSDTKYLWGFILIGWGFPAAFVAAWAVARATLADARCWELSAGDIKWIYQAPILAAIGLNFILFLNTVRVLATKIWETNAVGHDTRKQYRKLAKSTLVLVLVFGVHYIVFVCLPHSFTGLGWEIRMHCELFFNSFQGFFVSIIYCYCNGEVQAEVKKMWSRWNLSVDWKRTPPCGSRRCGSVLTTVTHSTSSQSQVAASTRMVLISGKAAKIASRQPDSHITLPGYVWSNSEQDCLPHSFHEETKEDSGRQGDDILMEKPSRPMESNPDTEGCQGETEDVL
Procedure, shortened: (§1)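 Selectivity came from luciferase transcriptional reporter assays expressing human PTH-2 receptor. PTH-1 agonism used transiently transfected HEK-293 cells carrying SV40-promoter receptor and cAMP-responsive-element luciferase; 4-5 h compound exposure, lysis, luminescence, non-linear-regression EC50/efficacy; ≥3 independent runs, PTH (1-34) control each.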

human PTH-1 receptor = biological target: T2, human PTH-1 receptor (Homo sapiens, UniProt Q03431); experiment: Reporter gene assay (CRE-luciferase) for agonist activity in transiently transfected HEK-293 cells; assay type: cell-based; settings: for hPTHR-2/hPTHR-1: Table 3, selectivity for hPTH-1 receptor over hPTH-2 receptor
T2 construct: expressed in transfected cells; host or cells: HEK-293
T2 sequence (Q03431 27-593): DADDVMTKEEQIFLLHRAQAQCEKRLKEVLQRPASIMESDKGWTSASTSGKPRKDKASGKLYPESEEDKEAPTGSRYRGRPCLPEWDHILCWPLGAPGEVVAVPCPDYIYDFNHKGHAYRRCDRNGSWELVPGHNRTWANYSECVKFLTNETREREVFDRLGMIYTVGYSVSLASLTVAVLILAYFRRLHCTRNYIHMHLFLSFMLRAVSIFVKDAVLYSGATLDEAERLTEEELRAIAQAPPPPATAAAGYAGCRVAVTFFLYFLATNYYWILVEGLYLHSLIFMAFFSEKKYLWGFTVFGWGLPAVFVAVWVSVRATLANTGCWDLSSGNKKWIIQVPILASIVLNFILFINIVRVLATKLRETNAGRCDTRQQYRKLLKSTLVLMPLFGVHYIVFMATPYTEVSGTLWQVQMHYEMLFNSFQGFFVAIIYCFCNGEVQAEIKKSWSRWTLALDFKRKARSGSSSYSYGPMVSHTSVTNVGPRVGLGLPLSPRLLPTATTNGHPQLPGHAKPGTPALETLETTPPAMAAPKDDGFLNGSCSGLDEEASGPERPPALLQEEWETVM
Procedure, shortened: as §1

| SMILES | pEC50 (human PTH-2 receptor) | pEC50 (human PTH-1 receptor) | hPTHR-2/hPTHR-1 (human PTH-1 receptor; ratio of EC50 values) | Selectivity hPTHR-2/hPTHR-1 (human PTH-1 receptor; Table 4 comparison data, ratio of EC50 values) |
| --- | --- | --- | --- | --- |
| CCCC[C@H](NC(=O)[C@H](CC(C)C)NC(=O)[C@H](CCC(N)=O)NC(=O)[C@@H](NC(=O)[C@H](CCC(=O)O)NC(=O)[C@H](CO)NC(=O)[C@@H](NC(=O)[C@@H](N)CO)C(C)C)[C@@H](C)CC)C(=O)N[C@@H](Cc1c[nH]cn1)C(=O)N[C@@H](CC(N)=O)C(=O)N[C@@H](CC(C)C)C(=O)NCC(=O)N[C@@H](CCCCN)C(=O)N[C@@H](Cc1c[nH]cn1)C(=O)N[C@@H](CC(C)C)C(=O)N[C@@H](CC(N)=O)C(=O)N[C@@H](CO)C(=O)N[C@H](CC(=O)N[C@@H](CCC(=O)O)C(=O)N[C@@H](CCCNC(=N)N)C(=O)N[C@H](C(=O)N[C@@H](CCC(=O)O)C(=O)N[C@@H](Cc1cccc2ccccc12)C(=O)N[C@@H](CC(C)C)C(=O)N[C@@H](CCCNC(=N)N)C(=O)N[C@@H](CCCCN)C(=O)N[C@@H](CC(C)C)C(=O)N[C@@H](CC(C)C)C(=O)N[C@@H](CCC(N)=O)C(=O)N[C@@H](CCCNC(=N)N)C(=O)N[C@H](C(=O)N[C@@H](Cc1c[nH]cn1)C(=O)N[C@@H](CC(N)=O)C(=O)N[C@@H](Cc1ccccc1)C(N)=O)C(C)C)C(C)C)[C@@H](C)CC [SEQ ID NO: 35, [Nle^8, β-hIle^18,1-Nal^23, Leu^27, Arg^30] hPTH (1-34)-NH2] (H-SVSEIQL[Nle]HNLGKHLNS[β3hI]ERVE[1Nal]LRKLLQRVHNF-NH2; N-terminus assumed) | 8.15 | 9.74 | 40 |  |
| CCCC[C@H](NC(=O)[C@H](CC(C)C)NC(=O)[C@H](CCC(N)=O)NC(=O)[C@@H](NC(=O)[C@H](CCC(=O)O)NC(=O)[C@H](CO)NC(=O)[C@@H](NC(=O)C(C)(C)N)C(C)C)[C@@H](C)CC)C(=O)N[C@@H](Cc1c[nH]cn1)C(=O)N[C@@H](CC(N)=O)C(=O)N[C@@H](CC(C)C)C(=O)NCC(=O)N[C@@H](CCCCN)C(=O)N[C@@H](Cc1c[nH]cn1)C(=O)N[C@@H](CC(C)C)C(=O)N[C@@H](CC(N)=O)C(=O)N[C@@H](CO)C(=O)N[C@H](CC(=O)N[C@@H](CCC(=O)O)C(=O)N[C@@H](CCCNC(=N)N)C(=O)N[C@H](C(=O)N[C@@H](CCC(=O)O)C(=O)N[C@@H](Cc1cccc2ccccc12)C(=O)N[C@@H](CC(C)C)C(=O)N[C@@H](CCCNC(=N)N)C(=O)N[C@@H](CCCCN)C(=O)N[C@@H](CC(C)C)C(=O)N[C@@H](CC(C)C)C(=O)N[C@@H](CCC(N)=O)C(=O)N[C@@H](CC(=O)O)C(=O)N[C@H](C(=O)N[C@@H](Cc1c[nH]cn1)C(=O)N[C@@H](CC(N)=O)C(=O)N[C@@H](Cc1ccccc1)C(N)=O)C(C)C)C(C)C)[C@@H](C)CC [SEQ ID NO: 36, [Aib^1, Nle^8, β-hIle^18,1-Nal^23, Leu^27] hPTH (1-34)-NH2] (H-[Aib]VSEIQL[Nle]HNLGKHLNS[β3hI]ERVE[1Nal]LRKLLQDVHNF-NH2) | 7.80 | 10.40 | 372 | 372 |
| CCCC[C@H](NC(=O)[C@H](CC(C)C)NC(=O)[C@H](CCC(N)=O)NC(=O)[C@@H](NC(=O)[C@H](CCC(=O)O)NC(=O)[C@H](CO)NC(=O)[C@@H](NC(=O)[C@@H](N)CO)C(C)C)[C@@H](C)CC)C(=O)N[C@@H](Cc1c[nH]cn1)C(=O)N[C@@H](CC(N)=O)C(=O)N[C@@H](CC(C)C)C(=O)NCC(=O)N[C@@H](CCCCN)C(=O)N[C@@H](Cc1c[nH]cn1)C(=O)N[C@@H](CC(C)C)C(=O)N[C@@H](CCCCN)C(=O)N[C@@H](CO)C(=O)N[C@H](CC(=O)N[C@@H](CCC(=O)O)C(=O)N[C@@H](CCCNC(=N)N)C(=O)N[C@H](C(=O)N[C@@H](CCC(=O)O)C(=O)N[C@@H](Cc1cccc2ccccc12)C(=O)N[C@@H](CC(C)C)C(=O)N[C@@H](CCCNC(=N)N)C(=O)N[C@@H](CCCCN)C(=O)N[C@@H](CC(C)C)C(=O)N[C@@H](CC(C)C)C(=O)N[C@@H](CCC(N)=O)C(=O)N[C@@H](CCCNC(=N)N)C(=O)N[C@H](C(=O)N[C@@H](Cc1c[nH]cn1)C(=O)N[C@@H](CC(N)=O)C(=O)N[C@@H](Cc1ccccc1)C(N)=O)C(C)C)C(C)C)[C@@H](C)CC [SEQ ID NO: 37, [Nle^8, Lys^16, β-hIle^18,1-Nal^23, Leu^27, Arg^30] hPTH (1-34)-NH2] (H-SVSEIQL[Nle]HNLGKHLKS[β3hI]ERVE[1Nal]LRKLLQRVHNF-NH2) | 7.85 | 9.85 | 97 |  |
| CCCC[C@H](NC(=O)[C@H](CC(C)C)NC(=O)[C@H](CCC(N)=O)NC(=O)[C@@H](NC(=O)[C@H](CCC(=O)O)NC(=O)[C@H](CO)NC(=O)[C@@H](NC(=O)C(C)(C)N)C(C)C)[C@@H](C)CC)C(=O)N[C@@H](Cc1c[nH]cn1)C(=O)N[C@@H](CO)C(=O)N[C@@H](CC(C)C)C(=O)NCC(=O)N[C@@H](CCCCN)C(=O)N[C@@H](Cc1c[nH]cn1)C(=O)N[C@@H](CC(C)C)C(=O)N[C@@H](CCCCN)C(=O)N[C@@H](CO)C(=O)N[C@H](CC(=O)N[C@@H](CCC(=O)O)C(=O)N[C@@H](CCCNC(=N)N)C(=O)N[C@H](C(=O)N[C@@H](CCC(=O)O)C(=O)N[C@@H](Cc1cccc2ccccc12)C(=O)N[C@@H](CC(C)C)C(=O)N[C@@H](CCCNC(=N)N)C(=O)N[C@@H](CCCCN)C(=O)N[C@@H](CC(C)C)C(=O)N[C@@H](CC(C)C)C(=O)N[C@@H](CCC(N)=O)C(=O)N[C@@H](CCCNC(=N)N)C(=O)N[C@H](C(=O)N[C@@H](Cc1c[nH]cn1)C(=O)N[C@@H](CCC(=O)O)C(=O)N[C@@H](Cc1ccccc1)C(N)=O)C(C)C)C(C)C)[C@@H](C)CC [SEQ ID NO: 38, [Aib^1, Nle^8, Ser^10, Lys^16, β-hIle^18,1-Nal^23, Leu^27, Arg^30, Glu^33] hPTH (1-34)-NH2] (H-[Aib]VSEIQL[Nle]HSLGKHLKS[β3hI]ERVE[1Nal]LRKLLQRVHEF-NH2) | 8.22 | 10.05 | 61 |  |
| CCCC[C@H](NC(=O)[C@H](CC(C)C)NC(=O)[C@H](CCC(N)=O)NC(=O)[C@@H](NC(=O)[C@H](CCC(=O)O)NC(=O)[C@H](CO)NC(=O)[C@@H](NC(=O)C(C)(C)N)C(C)C)[C@@H](C)CC)C(=O)N[C@@H](Cc1c[nH]cn1)C(=O)N[C@@H](CC(N)=O)C(=O)N[C@@H](CC(C)C)C(=O)NCC(=O)N[C@@H](CCCCN)C(=O)N[C@@H](Cc1c[nH]cn1)C(=O)N[C@@H](CC(C)C)C(=O)N[C@@H](CCCCN)C(=O)N[C@@H](CO)C(=O)N[C@H](CC(=O)N[C@@H](CCC(=O)O)C(=O)N[C@@H](CCCNC(=N)N)C(=O)N[C@H](C(=O)N[C@@H](CCC(=O)O)C(=O)N[C@@H](Cc1cccc2ccccc12)C(=O)N[C@@H](CC(C)C)C(=O)N[C@@H](CCCNC(=N)N)C(=O)N[C@@H](CCCCN)C(=O)N[C@@H](CC(C)C)C(=O)N[C@@H](CC(C)C)C(=O)N[C@@H](CCC(N)=O)C(=O)N[C@@H](CCCNC(=N)N)C(=O)N[C@H](C(=O)N[C@@H](Cc1c[nH]cn1)C(=O)N[C@@H](CCC(=O)O)C(=O)N[C@@H](Cc1ccccc1)C(N)=O)C(C)C)C(C)C)[C@@H](C)CC [SEQ ID NO: 39, [Aib^1, Nle^8, Lys^16, β-hIle^18,1-Nal^23, Leu^27, Arg^30, Glu^33] hPTH (1-34)-NH2] (H-[Aib]VSEIQL[Nle]HNLGKHLKS[β3hI]ERVE[1Nal]LRKLLQRVHEF-NH2; N-terminus assumed) | 8.22 | 10.05 | 61 |  |
| CCCC[C@H](NC(=O)[C@H](CC(C)C)NC(=O)[C@H](CCC(N)=O)NC(=O)[C@@H](NC(=O)[C@H](CCC(=O)O)NC(=O)[C@H](CO)NC(=O)[C@@H](NC(=O)[C@@H](N)CO)C(C)C)[C@@H](C)CC)C(=O)N[C@@H](Cc1c[nH]cn1)C(=O)N[C@@H](CC(N)=O)C(=O)N[C@@H](CC(C)C)C(=O)NCC(=O)N[C@@H](CCCCN)C(=O)N[C@@H](Cc1c[nH]cn1)C(=O)N[C@@H](CC(C)C)C(=O)N[C@@H](CCCCN)C(=O)N[C@@H](CO)C(=O)N[C@H](CC(=O)N[C@@H](CCC(=O)O)C(=O)N[C@@H](CCCNC(=N)N)C(=O)N[C@H](C(=O)N[C@@H](CCC(=O)O)C(=O)N[C@@H](Cc1cccc2ccccc12)C(=O)N[C@@H](CC(C)C)C(=O)N[C@@H](CCCNC(=N)N)C(=O)N[C@@H](CCCCN)C(=O)N[C@@H](CC(C)C)C(=O)N[C@@H](CC(C)C)C(=O)N[C@@H](CCC(N)=O)C(=O)N[C@@H](CCCNC(=N)N)C(=O)N[C@H](C(=O)N[C@@H](Cc1c[nH]cn1)C(=O)N[C@@H](CCC(=O)O)C(=O)N[C@@H](Cc1ccccc1)C(N)=O)C(C)C)C(C)C)[C@@H](C)CC [SEQ ID NO: 41, [Nle^8, Lys^16, β-hIle^18,1-Nal^23, Leu^27, Arg^30, Glu^33] hPTH (1-34)-NH2] (H-SVSEIQL[Nle]HNLGKHLKS[β3hI]ERVE[1Nal]LRKLLQRVHEF-NH2) | 7.85 | 10.05 | 157 |  |
